According to ChEMBL document CHEMBL1147358, “A New Brominated Indole-3-carbaldehyde from the Marine Bryozoan Zoobotryon verticillatum” (J Nat Prod, 1993):
Activity calls are given as the source filed them. The calls are words filed in the database; no cut-off is given here.

How the values were obtained:
[1] = test system: Echinoidea; assay: Inhibition of sea urchin egg division at 5 ug/ml; assay type: functional
[2] = test system: Echinoidea; assay: Inhibition of sea urchin egg division at 20 ug/ml; assay type: functional
[3] = test system: Echinoidea; assay: Effect on fertilized sea urchin egg division assessed as delaying of metamorphosis at 5 ug/ml; assay type: functional
[4] = test system: Pluteus; assay: Decrease in mobility of Pluteus larvae at 10 ug/ml; assay type: functional, organism-based

SMILES | Activity [1] | Activity [2] | Activity [3] | Activity [4]
Cn1c(Br)c(C[N+](C)(C)[O-])c2cc(Br)c(Br)cc21 | Active | Active |  | 
CN(C)Cc1c(Br)n(C)c2cc(Br)c(Br)cc12 | Active | Active |  | 
Cn1c(Br)c(C=O)c2cc(Br)c(Br)cc21 |  |  | Active | Active
